These compounds were tested on NB12 (assay: cells). Conditions: Homo sapiens.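 Also: growth inhibition of human NB12 cells, read out by a cell viability assay.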
Assay type: functional, cell-based
Description: SANGER: Inhibition of human NB12 cell growth in a cell viability assay.
In the case of Cc1ccc(-n2nc(C(C)(C)C)cc2NC(=O)Nc2ccc(OCCN3CCOCC3)c3ccccc23)cc1 [DORAMAPIMOD], the IC50 is reported as > 10 µM.

The compounds below were run on NCI-H1666 (assay: cells). Conditions: Homo sapiens.
Assay type: functional, cell-based
Description: SANGER: Inhibition of human NCI-H1666 cell growth in a cell viability assay.
With Cc1ccc(-n2nc(C(C)(C)C)cc2NC(=O)Nc2ccc(OCCN3CCOCC3)c3ccccc23)cc1 [DORAMAPIMOD] the IC50 was > 10 µM.

What follows are compounds tested on LCLC-97TM1 (assay: cells). Conditions: Homo sapiens.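 Also: cell viability assay measuring growth inhibition of human LCLC-97TM1 cells.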
Assay type: functional, cell-based
Description: SANGER: Inhibition of human LCLC-97TM1 cell growth in a cell viability assay.
With Cc1ccc(-n2nc(C(C)(C)C)cc2NC(=O)Nc2ccc(OCCN3CCOCC3)c3ccccc23)cc1 [DORAMAPIMOD] the IC50 was > 10 µM.

The compounds below were run on Detroit 562 (assay: cells). Conditions: Homo sapiens.
Assay type: functional, cell-based
Description: SANGER: Inhibition of human Detroit562 cell growth in a cell viability assay.
In the case of Cc1ccc(-n2nc(C(C)(C)C)cc2NC(=O)Nc2ccc(OCCN3CCOCC3)c3ccccc23)cc1 [DORAMAPIMOD], the IC50 is reported as > 10 µM.

Each compound was assayed on TGBC11TKB (assay: cells). Conditions: Homo sapiens.
Assay type: functional, cell-based
Description: SANGER: Inhibition of human TGBC11TKB cell growth in a cell viability assay.
Cc1ccc(-n2nc(C(C)(C)C)cc2NC(=O)Nc2ccc(OCCN3CCOCC3)c3ccccc23)cc1 [DORAMAPIMOD] was tested, and the IC50 was > 10 µM.

Each compound was assayed on COR-L23 (assay: cells). Conditions: Homo sapiens.
Assay type: functional, cell-based
Description: SANGER: Inhibition of human COR-L23 cell growth in a cell viability assay.
In the case of Cc1ccc(-n2nc(C(C)(C)C)cc2NC(=O)Nc2ccc(OCCN3CCOCC3)c3ccccc23)cc1 [DORAMAPIMOD], the IC50 is reported as > 10 µM.

Each compound was assayed on COLO-741 (assay: cells). Conditions: Homo sapiens.
Assay type: functional, cell-based
Description: SANGER: Inhibition of human COLO-741 cell growth in a cell viability assay.
In the case of Cc1ccc(-n2nc(C(C)(C)C)cc2NC(=O)Nc2ccc(OCCN3CCOCC3)c3ccccc23)cc1 [DORAMAPIMOD], the IC50 is reported as > 10 µM.

What follows are compounds tested on LoVo (assay: cells). Conditions: Homo sapiens.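 Also: growth inhibition of human LoVo cells, read out with a cell viability assay.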
Assay type: functional, cell-based
Description: SANGER: Inhibition of human LoVo cell growth in a cell viability assay.
With Cc1ccc(-n2nc(C(C)(C)C)cc2NC(=O)Nc2ccc(OCCN3CCOCC3)c3ccccc23)cc1 [DORAMAPIMOD] the IC50 was > 10 µM.

The compounds below were run on PC-14 (assay: cells). Conditions: Homo sapiens.
Assay type: functional, cell-based
Description: SANGER: Inhibition of human PC-14 cell growth in a cell viability assay.
In the case of Cc1ccc(-n2nc(C(C)(C)C)cc2NC(=O)Nc2ccc(OCCN3CCOCC3)c3ccccc23)cc1 [DORAMAPIMOD], the IC50 is reported as > 10 µM.

Each compound was assayed on D-392MG (assay: cells). Conditions: Homo sapiens.
Assay type: functional, cell-based
For Cc1ccc(-n2nc(C(C)(C)C)cc2NC(=O)Nc2ccc(OCCN3CCOCC3)c3ccccc23)cc1 [DORAMAPIMOD], the IC50 was > 10 µM.

Each compound was assayed on RERF-LC-MS (assay: cells). Conditions: Homo sapiens.
Assay type: functional, cell-based
Description: SANGER: Inhibition of human RERF-LC-MS cell growth in a cell viability assay.
For Cc1ccc(-n2nc(C(C)(C)C)cc2NC(=O)Nc2ccc(OCCN3CCOCC3)c3ccccc23)cc1 [DORAMAPIMOD], the IC50 was > 10 µM.

Each compound was assayed on CFPAC-1 (assay: cells). Conditions: Homo sapiens.
Assay type: functional, cell-based
Description: SANGER: Inhibition of human CFPAC-1 cell growth in a cell viability assay.
For Cc1ccc(-n2nc(C(C)(C)C)cc2NC(=O)Nc2ccc(OCCN3CCOCC3)c3ccccc23)cc1 [DORAMAPIMOD], the IC50 was > 10 µM.

What follows are compounds tested on BEN (assay: cells). Conditions: Homo sapiens.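 Also: growth inhibition of the BEN cell line, read out with a cell viability assay.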
Assay type: functional, cell-based
Description: SANGER: Inhibition of human BEN cell growth in a cell viability assay.
In the case of Cc1ccc(-n2nc(C(C)(C)C)cc2NC(=O)Nc2ccc(OCCN3CCOCC3)c3ccccc23)cc1 [DORAMAPIMOD], the IC50 is reported as > 10 µM.

These compounds were tested on NCI-H2291 (assay: cells). Conditions: Homo sapiens.
Assay type: functional, cell-based
Description: SANGER: Inhibition of human NCI-H2291 cell growth in a cell viability assay.
With Cc1ccc(-n2nc(C(C)(C)C)cc2NC(=O)Nc2ccc(OCCN3CCOCC3)c3ccccc23)cc1 [DORAMAPIMOD] the IC50 was > 10 µM.

What follows are compounds tested on HMV-2 cell line (assay: cells). Conditions: Homo sapiens.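 Also: growth inhibition of HMV-II cells, read out with a cell viability assay.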
Assay type: functional, cell-based
Description: SANGER: Inhibition of human HMV-II cell growth in a cell viability assay.
With Cc1ccc(-n2nc(C(C)(C)C)cc2NC(=O)Nc2ccc(OCCN3CCOCC3)c3ccccc23)cc1 [DORAMAPIMOD] the IC50 was > 10 µM.

Each compound was assayed on TCC-SUP (assay: cells). Conditions: Homo sapiens.
Assay type: functional, cell-based
Description: SANGER: Inhibition of human TCCSUP cell growth in a cell viability assay.
In the case of Cc1ccc(-n2nc(C(C)(C)C)cc2NC(=O)Nc2ccc(OCCN3CCOCC3)c3ccccc23)cc1 [DORAMAPIMOD], the IC50 is reported as > 10 µM.

These compounds were tested on CHP-212 (assay: cells). Conditions: Homo sapiens.
Assay type: functional, cell-based
Description: SANGER: Inhibition of human CHP-212 cell growth in a cell viability assay.
Cc1ccc(-n2nc(C(C)(C)C)cc2NC(=O)Nc2ccc(OCCN3CCOCC3)c3ccccc23)cc1 [DORAMAPIMOD] was tested, and the IC50 was > 10 µM.

What follows are compounds tested on EFO-21 (assay: cells). Conditions: Homo sapiens.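 Also: growth inhibition of EFO-21 cells measured with a viability assay.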
Assay type: functional, cell-based
Description: SANGER: Inhibition of human EFO-21 cell growth in a cell viability assay.
Cc1ccc(-n2nc(C(C)(C)C)cc2NC(=O)Nc2ccc(OCCN3CCOCC3)c3ccccc23)cc1 [DORAMAPIMOD] was tested, and the IC50 was > 10 µM.

Each compound was assayed on NCI-H1792 (assay: cells). Conditions: Homo sapiens.
Assay type: functional, cell-based
Description: SANGER: Inhibition of human NCI-H1792 cell growth in a cell viability assay.
With Cc1ccc(-n2nc(C(C)(C)C)cc2NC(=O)Nc2ccc(OCCN3CCOCC3)c3ccccc23)cc1 [DORAMAPIMOD] the IC50 was > 10 µM.

What follows are compounds tested on RH-18 (assay: cells). Conditions: Homo sapiens, Rh18.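 Also: growth inhibition of human RH-18 cells, read out with a cell viability assay.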
Assay type: functional, cell-based
Description: SANGER: Inhibition of human RH-18 cell growth in a cell viability assay.
For Cc1ccc(-n2nc(C(C)(C)C)cc2NC(=O)Nc2ccc(OCCN3CCOCC3)c3ccccc23)cc1 [DORAMAPIMOD], the IC50 was > 10 µM.

These compounds were tested on SCC-9 (assay: cells). Conditions: Homo sapiens.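 Also: Read-out is a cell viability assay, with values giving inhibition of cell growth.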
Assay type: functional, cell-based
Description: SANGER: Inhibition of human SCC-9 cell growth in a cell viability assay.
In the case of Cc1ccc(-n2nc(C(C)(C)C)cc2NC(=O)Nc2ccc(OCCN3CCOCC3)c3ccccc23)cc1 [DORAMAPIMOD], the IC50 is reported as > 10 µM.

These compounds were tested on SW-620 (assay: cells). Conditions: Homo sapiens.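 Also: growth inhibition of human SW-620 cells, measured by a cell viability assay.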
Assay type: functional, cell-based
Description: SANGER: Inhibition of human SW620 cell growth in a cell viability assay.
With Cc1ccc(-n2nc(C(C)(C)C)cc2NC(=O)Nc2ccc(OCCN3CCOCC3)c3ccccc23)cc1 [DORAMAPIMOD] the IC50 was > 10 µM.

The compounds below were run on SK-MEL3 (assay: cells). Conditions: Homo sapiens.
Assay type: functional, cell-based, SK-MEL-3
Description: SANGER: Inhibition of human SK-MEL-3 cell growth in a cell viability assay.
With Cc1ccc(-n2nc(C(C)(C)C)cc2NC(=O)Nc2ccc(OCCN3CCOCC3)c3ccccc23)cc1 [DORAMAPIMOD] the IC50 was > 10 µM.

These compounds were tested on NCI-H1693 (assay: cells). Conditions: Homo sapiens.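 Also: growth inhibition of the human cell line, read out with a cell viability assay.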
Assay type: functional, cell-based
Description: SANGER: Inhibition of human NCI-H1693 cell growth in a cell viability assay.
Cc1ccc(-n2nc(C(C)(C)C)cc2NC(=O)Nc2ccc(OCCN3CCOCC3)c3ccccc23)cc1 [DORAMAPIMOD] was tested, and the IC50 was > 10 µM.

These compounds were tested on BFTC-905 (assay: cells). Conditions: Homo sapiens.
Assay type: functional, cell-based
Description: SANGER: Inhibition of human BFTC-905 cell growth in a cell viability assay.
For Cc1ccc(-n2nc(C(C)(C)C)cc2NC(=O)Nc2ccc(OCCN3CCOCC3)c3ccccc23)cc1 [DORAMAPIMOD], the IC50 was > 10 µM.

What follows are compounds tested on SNU-387 (assay: cells). Conditions: Homo sapiens.
Assay type: functional, cell-based
Description: SANGER: Inhibition of human SNU-387 cell growth in a cell viability assay.
For Cc1ccc(-n2nc(C(C)(C)C)cc2NC(=O)Nc2ccc(OCCN3CCOCC3)c3ccccc23)cc1 [DORAMAPIMOD], the IC50 was > 10 µM.

What follows are compounds tested on UACC-893 (assay: cells). Conditions: Homo sapiens.
Assay type: functional, cell-based
Description: SANGER: Inhibition of human UACC-893 cell growth in a cell viability assay.
Cc1ccc(-n2nc(C(C)(C)C)cc2NC(=O)Nc2ccc(OCCN3CCOCC3)c3ccccc23)cc1 [DORAMAPIMOD] was tested, and the IC50 was > 10 µM.

The compounds below were run on OAW-42 (assay: cells). Conditions: Homo sapiens.
Assay type: functional, cell-based
Description: SANGER: Inhibition of human OAW-42 cell growth in a cell viability assay.
In the case of Cc1ccc(-n2nc(C(C)(C)C)cc2NC(=O)Nc2ccc(OCCN3CCOCC3)c3ccccc23)cc1 [DORAMAPIMOD], the IC50 is reported as > 10 µM.

The compounds below were run on D-542MG (assay: cells). Conditions: Homo sapiens.
Assay type: functional, cell-based
Description: SANGER: Inhibition of human D-542MG cell growth in a cell viability assay.
With Cc1ccc(-n2nc(C(C)(C)C)cc2NC(=O)Nc2ccc(OCCN3CCOCC3)c3ccccc23)cc1 [DORAMAPIMOD] the IC50 was > 10 µM.

What follows are compounds tested on NBsusSR (assay: cells). Conditions: Homo sapiens.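 Also: growth inhibition of the human cell line, read out with a cell viability assay.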
Assay type: functional, cell-based
Description: SANGER: Inhibition of human NBsusSR cell growth in a cell viability assay.
For Cc1ccc(-n2nc(C(C)(C)C)cc2NC(=O)Nc2ccc(OCCN3CCOCC3)c3ccccc23)cc1 [DORAMAPIMOD], the IC50 was > 10 µM.

The compounds below were run on NCI-H358 (assay: cells). Conditions: Homo sapiens.
Assay type: functional, cell-based
Description: SANGER: Inhibition of human NCI-H358 cell growth in a cell viability assay.
Cc1ccc(-n2nc(C(C)(C)C)cc2NC(=O)Nc2ccc(OCCN3CCOCC3)c3ccccc23)cc1 [DORAMAPIMOD] showed an IC50 of 7.54 µM.

These compounds were tested on ECC10 (assay: cells). Conditions: Homo sapiens.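 Also: growth inhibition of ECC10 cells, read out by a cell viability assay.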
Assay type: functional, cell-based
Description: SANGER: Inhibition of human ECC10 cell growth in a cell viability assay.
With Cc1ccc(-n2nc(C(C)(C)C)cc2NC(=O)Nc2ccc(OCCN3CCOCC3)c3ccccc23)cc1 [DORAMAPIMOD] the IC50 was > 10 µM.

What follows are compounds tested on NCI-H727 (assay: cells). Conditions: Homo sapiens.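 Also: growth inhibition of human NCI-H727 cells, read out with a cell viability assay.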
Assay type: functional, cell-based
Description: SANGER: Inhibition of human NCI-H727 cell growth in a cell viability assay.
For Cc1ccc(-n2nc(C(C)(C)C)cc2NC(=O)Nc2ccc(OCCN3CCOCC3)c3ccccc23)cc1 [DORAMAPIMOD], the IC50 was > 10 µM.

What follows are compounds tested on OVCAR-3 (assay: cells). Conditions: Homo sapiens.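 Also: growth inhibition of human OVCAR-3 cells, determined by a cell viability assay.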
Assay type: functional, cell-based
Description: SANGER: Inhibition of human OVCAR-3 cell growth in a cell viability assay.
With Cc1ccc(-n2nc(C(C)(C)C)cc2NC(=O)Nc2ccc(OCCN3CCOCC3)c3ccccc23)cc1 [DORAMAPIMOD] the IC50 was > 10 µM.

The compounds below were run on AU565 (assay: cells). Conditions: Homo sapiens.
Assay type: functional, cell-based
Description: SANGER: Inhibition of human AU565 cell growth in a cell viability assay.
With Cc1ccc(-n2nc(C(C)(C)C)cc2NC(=O)Nc2ccc(OCCN3CCOCC3)c3ccccc23)cc1 [DORAMAPIMOD] the IC50 was > 10 µM.

What follows are compounds tested on MCF7 (assay: cells). Conditions: Homo sapiens.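 Also: growth inhibition of human MCF7 cells, read out with a cell viability assay.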
Assay type: functional, cell-based
Description: SANGER: Inhibition of human MCF7 cell growth in a cell viability assay.
Cc1ccc(-n2nc(C(C)(C)C)cc2NC(=O)Nc2ccc(OCCN3CCOCC3)c3ccccc23)cc1 [DORAMAPIMOD] was tested, and the IC50 was > 10 µM.

Each compound was assayed on LU-135 (assay: cells). Conditions: Homo sapiens.
Assay type: functional, cell-based
Description: SANGER: Inhibition of human LU-135 cell growth in a cell viability assay.
In the case of Cc1ccc(-n2nc(C(C)(C)C)cc2NC(=O)Nc2ccc(OCCN3CCOCC3)c3ccccc23)cc1 [DORAMAPIMOD], the IC50 is reported as > 10 µM.

What follows are compounds tested on SW837 (assay: cells). Conditions: Homo sapiens.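 Also: growth inhibition of SW837 cells, determined with a cell viability assay.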
Assay type: functional, cell-based
Description: SANGER: Inhibition of human SW837 cell growth in a cell viability assay.
For Cc1ccc(-n2nc(C(C)(C)C)cc2NC(=O)Nc2ccc(OCCN3CCOCC3)c3ccccc23)cc1 [DORAMAPIMOD], the IC50 was > 10 µM.
